Source: patent US20220016092A1, “METHODS FOR TREATING SYMPTOMS AND DISORDERS ASSOCIATED WITH LYSOSOMAL STORAGE DISEASES” (GENZYME CORPORATION, priority 2019, published 2022)
Values joined by “and” are separate entries in the source; they are usually repeats but may differ in a detail not shown here. Equal values may be shown once.

Key:
[1] = system: glucosylceramide (GL-1) and glucosylsphingosine (lyso-GL1) in CSF and plasma; test: Clinical study in GD-3 patients: GL-1 and lyso-GL-1 in CSF and plasma; format: in vivo, human; conditions: 15 mg/day + imiglucerase; for GL-1 in CSF, percent change from baseline, Mean (n = 4) / Lyso-GL1 in CSF, percent change from baseline, Mean (n = 4): excludes Patient 5
Procedure: During the study patients were evaluated for safety and tolerability, CSF and plasma biomarkers (glucosylceramide, GL-1; glucosylsphingosine, lyso-GL1), pharmacokinetics, markers for systemic disease (spleen and liver volume measured by magnetic resonance imaging (MRI), platelet count, hemoglobin levels), indicia of interstitial lung disease (high resolution pulmonary computed tomography (CT)), and horizontal saccadic eye movement.
At baseline, the mean (±SD) GL-1 concentration in CSF was 7.1±2.8 ng/mL (range 4.4-11.1 ng/mL), while the mean (±SD) lyso-GL-1 concentration in CSF was 39.3±22.9 pg/mL (range 20.1-67.6 pg/mL). For comparison, the healthy GL-1 concentration in CSF is 4.5-5.9 ng/mL, and the healthy level of lyso-GL-1 in CSF is less than 5.0 pg/mL. […]

[2] = system: adult patients with Gaucher disease Type 3; test: Clinical study in GD-3 patients: trail making test (TMT); format: in vivo, human; conditions: 15 mg/day + imiglucerase
Text: The trail making test (TMT) was used to evaluate cognitive function in the patients. The TMT is one of the most widely used neuropsychological tests and is included in most test batteries. The TMT is a diagnostic tool to assess general intelligence and cognitive dysfunctions (Tombaugh et al. [2004]; Cavaco et al. [2013]). In part A of the TMT, subjects are asked to connect a cluster of numbers in ascending order. This task is a combination of visual search and general visual and motor processing speed. Part B presents a sequence which alternates between numbers and letters. Subjects must actively switch between both categories when connecting them in ascending, but alternating order.
TMT-A evaluates mainly perceptual and psychomotor speed. TMT-B assesses more specifically mental flexibility and shifting abilities. TMT B minus TMT A score is used to remove the variance attributable to the graphomotor and visual scanning components of TMT A. This derived score reflects the unique task requirements of TMT B.

[3] = system: GM3 expression in B16 mouse melanoma cells; test: GM3 fluorescent-linked immunosorbent assay (FLISA), B16 cells; format: cell-based; conditions: 48 hours
Text: Inhibition of glucosylceramide synthase activity can be measured with one or more assays. A first assay is a microsomal assay that directly measures the conversion of ceramide to glucosylceramide by HPLC. Microsomes are a source of glucosylceramide synthase activity in the microsomal assay. A second assay is a cell based, phenotypic assay that monitors cell surface expression of the downstream lipid GM3 by antibody mediated immunofluorescence. Specific protocols are provided below.
This is a phenotypic assay that measures GM3 expression in B16 mouse melanoma or C32 human melanoma cells following treatment with test compounds. Cell surface GM3 expression is determined by antibody mediated fluorescence.
Compounds are diluted in media and plated in 384 well plates in DMSO. B16 and C32 cells are assayed at densities of 20,000 cells/ml and 62,500 cells/ml, respectively, per well. Each titration curve contains 10 points that are assayed in duplicate on each test run. The plates are incubated for 48 hours at 37° C., 5% CO2, and are then washed once with TBS. Anti-GM3 antibody is added to each well and the plates are then incubated for an additional one hour at room temperature. Plates are subsequently washed twice and incubated for an additional hour with the labeled secondary antibody. Following the final incubation, the plates are washed twice and the fluorescence at λex=D640/20 nm and λem=657 nm is detected on a fluorescent reader.
The results of the microsomal assays are expressed as “GCS IC50”, which represents the concentration of the compound causing 50% inhibition of glucosylceramide synthase activity. The results of the cell-based assays are expressed as “GM3 B16 IC50” or “GM3 C32 IC50” for the B16 assay and the C32 assay, respectively. These values represent the concentration of the compound causing 50% inhibition of GM3 expression on the cell surface.

[4] = system: adult patients with Gaucher disease Type 3; test: Clinical study in GD-3 patients: resting-state fMRI connectivity; format: in vivo, human; conditions: 15 mg/day + imiglucerase, individual Patients 1, 3, 4, 5, 6 (Patient 5 likely non-compliant)
Procedure: Neurological function-was further evaluated using functional magnetic resonance imaging (fMRI). Patient 2 was excluded because no fMRI data was collected at the Week 52 session. Resting-state fMRI screening sessions were performed at baseline screening, Week 26, and Week 52 visits. Connectivity estimates from four subjects (Patients 1, 3, 4 and 5) were entered into second-level analyses as a “compliant” group. Patient 5 was isolated due to likely non-compliance with study medication, as described above. Analyses were performed as described elsewhere (Smith et al. [2009]).
Spatial analysis of the connectivity between different anatomic regions of the brain is performed to define a correlation coefficient for regressed voxelwise mean intensity.

[5] = system: GL-3 inclusions in superficial endothelial cell capillaries; test: Clinical study in Fabry disease patients: GL-3 inclusion volume fraction by electron microscopy; format: in vivo, human; conditions: 15 mg/day oral
Text: In addition to scoring GL-3 skin inclusions by light microscopy, the fraction of the volume of endothelial cell cytoplasm occupied by GL-3 inclusions was estimated using point-counting of electron microscopic images by a masked reader. Images from at least 50 superficial endothelial cell capillaries were obtained using electron microscopy at 7500× magnification. Two-sided t tests were used to evaluate differences between baseline and post-treatment values at each time point.

[6] = system: healthy, human volunteers; test: Phase 1 studies in healthy volunteers: safety; format: in vivo
Procedure: Compound 2 is also known as venglustat.
In all studies, safety profile was assessed by monitoring treatment-emergent adverse events (TEAEs) through 10 days after last dose of study medication, including serious adverse events [SAEs]), ECG monitoring, laboratory values, and physical examinations.

[7] = 4 weeks, individual Patients 1-5
[8] = 26 weeks, individual Patients 1-5 (Patient 5 reduced exposure)

CC(C)(NC(=O)O[C@@H]1CN2CCC1CC2)c1csc(-c2ccc(F)cc2)n1 [Compound 2, (S)-quinuclidin-3-yl 2-(2-(4-fluorophenyl)thiazol-4-yl)propan-2-ylcarbamate]
GL-1 in CSF, percent change from baseline, Mean (n = 4) ([1]; 4 weeks): −64% | Lyso-GL1 in CSF, percent change from baseline, Mean (n = 4) ([1]; 4 weeks): −32% | GL-1 in CSF, percent change from baseline [1, 7]: −86% and −55% and −53% and −62% and −36% | Lyso-GL1 in CSF, percent change from baseline [1, 7]: −38% and −16% and −34% and −39% and −11% | GL-1 in CSF, percent change from baseline, Mean (n = 4) ([1]; 26 weeks): −75% | Lyso-GL1 in CSF, percent change from baseline, Mean (n = 4) ([1]; 26 weeks): −48% | GL-1 in CSF, percent change from baseline [1, 8]: −86% and −78% (2×) and −58% and +4% | Lyso-GL1 in CSF, percent change from baseline [1, 8]: −52% and −42% and −41% and −57% and +94% | Mean difference in time taken to complete Trail B minus Trail A ([2]; 52 weeks, SD=54.3): 66.2 s | Patients with a TMT-A reduction, excluding Patient 5 ([2]; Week 52): four of five | Patients with a TMT-B reduction, excluding Patient 5 ([2]; Week 52): five of five | Patients with a reduction in the (TMT B−TMT A) time ([2]; Week 52): 5 of 6 | Patients with an improvement in Trail B minus Trial A, excluding Patient 5 ([2]; Week 52): four of five | Patients with reduction in time taken to complete Trail A ([2]; Week 52): Four of six | Patients with reduction in time taken to complete Trail B ([2]; Week 52): six of six | IC50 [3]: 107 nM | Change in Correlation Coefficient (connectivity default mode network - executive function network) [4]: +0.20 (3×) and −0.13 and +0.70 | Volume fraction (volume of inclusions/total cytoplasmic volume) ([5]; 3 months (N = 9)): 0.29 ± 0.06 | Volume fraction, Change from baseline ([5]; 3 months (N = 9), P 0.74): −1.9% | Volume fraction (volume of inclusions/total cytoplasmic volume) ([5]; 3 years (N = 6)): 0.18 ± 0.03 | Volume fraction, Change from baseline ([5]; 3 years (N = 6), P 0.001): −38.7% | Volume fraction (volume of inclusions/total cytoplasmic volume) ([5]; 6 months (N = 8)): 0.23 ± 0.04 | Volume fraction, Change from baseline ([5]; 6 months (N = 8), P 0.001): −21.1% | Hematologic or biochemical abnormalities ([6]; all Phase 1 studies): No clinically relevant hematologic or biochemical abnormalities | Vital signs ([6]; all Phase 1 studies): no relevant changes from baseline | Deaths, SAEs, severe TEAEs, discontinuations ([6]; all Phase 1 studies (single 2-150 mg; 5-20 mg daily for 14 days)): no deaths, SAEs, severe TEAEs, or TEAEs leading to study discontinuation | ECG parameters ([6]; single ascending dose and food effect studies): no relevant changes
